In patent US20240228558A9, “PEPTIDES AND METHODS FOR THE TREATMENT OF NEUROMYELITIS OPTICA” (IMCYSE SA, priority 2021, published 2024):
Blank lines part the entries; values can stand above or below the sequence they belong to.

What was measured:
[1] = system: peptide-specific CD4+ T cell lines of NMO patients; test: Cytokine secretion in CD4+ T cell culture supernatants (LEGENDplex Human Th Panel); type: cell-based
Source text: (§1) PBMCs are isolated from blood samples of patients with NMO on Lymphoprep density gradients. CD14+ monocytes are isolated from these PBMCs by performing positive immunomagnetic separation with CD14 microbeads (Miltenyi Biotec, 130-050-201) according to the supplier recommendations. CD14+ monocytes are differentiated for six days and maturated to generate autologous dendritic cells (mDC). CD19+ B cells are isolated from the CD14− PBMCs fraction by performing positive immunomagnetic separation with CD19 microbeads (Miltenyi Biotec, 130-050-301) according to the supplier recommendations. CD19+B cells are cultured and immortalized with EBV to generate autologous lymphoblastoid cell lines (LCL). Naïve CD4+ T cells are also purified from the CD14− PBMCs fraction by performing negative immunomagnetic separation with naïve CD4+ T cell isolation kit (Miltenyi Biotec, 130-094-131) according to the supplier recommendations. Naïve CD4+ T cells are co-cultured with autologous mDC or LCL in the presence of the peptides of table 1. The CD4+ T cells are re-stimulated periodically, about every 10-12 days, to generate peptide-specific cell lines.
The ability of the peptides of table 1 to induce cytokines secretion in CD4+ T cells culture supernatants is evaluated by flow cytometry analysis after overnight co-culture at resting state with autologous mDC or LCL without (no peptide) or with the peptides of table 1. Supernatants are analyzed with the LEGENDplex Human Th Panel (13-plex) (BioLegend, 740721) according to the supplier recommendations.

[2] = system: autologous LCL (lymphoblastoid cell lines) used as antigen presenting cells; test: Cytolytic activity: apoptosis of peptide-loaded autologous LCL co-cultured with peptide specific CD4+ T cells (Annexin V); type: cell-based, human
Source text: as §1
The cytolytic activity of the peptide specific CD4+ T cells is evaluated by quantifying the apoptosis induced on LCL used as antigen presenting cells. Fluorescently labelled autologous LCL, loaded or not with the peptides, were overnight co-cultured at resting state with peptide specific CD4+ T cells, and LCL apoptosis was quantified by flow cytometry through Annexin V staining. Considering the apoptosis percentage of unloaded LCL, used as control, the percentage of specific apoptosis is calculated as follows: […]

[3] = system: peptide-specific CD4+ T cell lines of NMO patients; test: Lytic marker Granzyme B in supernatant of overnight co-culture with autologous LCL; type: cell-based, human
Source text: as §1
(§2) LCL without (no peptide) or with the peptides of table 1. The expression of the lytic marker Granzyme B is also evaluated by flow cytometry analysis in the supernatant of overnight co-culture with autologous LCL without (no peptide) or with the peptides of table 1. Supernatants are analyzed with a BioLegend kit according to the supplier recommendations.

[4] = system: peptide-specific CD4+ T cell lines of NMO patients; test: Flow cytometry of TCR induced surface activation marker CD154 after overnight co-culture with autologous LCL; type: cell-based, human
Source text: as §1
The evaluation of the ability of the peptides of table 1 to generate peptide specific CD4+ T cells is evaluated by flow cytometry analysis of the TCR induced surface activation marker CD154 expression after overnight co-culture at resting state with autologous
as §2

[5] = target: T1, soluble HLA-DRB1*03:01 (DR3) human MHC II protein (Homo sapiens, UniProt P01903+P01911, A100K/A102G/A103R/A169T/F55Y/I96L/K41T/L162R/M171V/P40S/Q125H/Q178H/Q39Y/R42S/S66N/T106N/T262R/W38E/Y61H); test: Soluble phase competition binding assay to MHCII with biotin-labelled control peptide; conditions: competition with biotin-labelled high affinity control peptide, 18h, triplicates (FIGS. 2A-2E)
T1 construct: purchased Benaroya Research Institute, Seattle, US
Method: To test the binding of the immunogenic peptides of table 1 to MHCII molecules, a soluble phase competition assay is performed. The increasing concentrations of the peptides compete with biotin-labelled control peptide (high affinity binder of the corresponding MHCII molecule, Eurogentec, Seraing, Belgium) for binding to the soluble HLA-DRB1*03:01 (also named DR3) human MHC II protein (purchased from the Benaroya Research Institute, Seattle, US). As binding approaches its equilibrium (18h), biotin-labelled peptide/MHC II complexes are captured, separated from unbound reagents, and quantitatively detected by time-resolved fluorescence (Eu^3+ streptavidin, Perkin Elmer, Brussels, Belgium). Since the biotinylated control peptide is responsible for the fluorescence signal (Eu^3+ streptavidin/biotin interaction), the decrease in fluorescence intensity reflects the binding of tested peptides. Data are processed and plotted to ascertain dose-dependent binding properties of the peptides. All the tests are performed in triplicates.

[6] = Oxidoreductase activity of the immunogenic peptides, fluorescent assay (Tomazzolli et al.); type: biochemical; conditions: for time at which oxidoreductase activity reached a plateau: FIG. 1A; for oxidoreductase activity: reduction of self-quenched FITC peptides, mean of duplicates, read in RFU (FIGS. 1A-1E)
Source text: The peptides of the invention comprise an MHC class II T-cell epitope or NKT cell epitope of AQP4 with a potential to trigger an immune reaction, and a modified oxidoreductase motif. The reducing activity of the motif sequence in the peptide can be assayed for its ability to reduce a sulfhydryl group such as in the insulin solubility assay wherein the solubility of insulin is altered upon reduction, or with a fluorescence-labelled substrate such as insulin. An example of such assay uses a fluorescent peptide and is described in Tomazzolli et al. (2006) Anal. Biochem. 350, 105-112. Two peptides with a FITC label become self-quenching when they covalently attached to each other via a disulfide bridge. Upon reduction by a peptide in accordance with the present invention, the reduced individual peptides become fluorescent again.
The oxidoreductase activity of the immunogenic peptides of table 1 was determined using a fluorescent assay described in Tomazzolli et al. (2006) Anal. Biochem. 350, 105-112. Two peptides with a FITC label become self-quenching when they form a covalent disulfide bond. Upon reduction by a peptide in accordance with the present invention, the reduced individual FITC labelled peptides emit fluorescence again. The activity is expressed as the mean of duplicates. The results are expressed in Relative Fluorescent Units (RFU).

[7] = culture supernatant of P20-CD4+ cell line from patient NMO-006 (FIG. 5)
[8] = P20-specific CD4+ T cell lines NMO-001, NMO-003, NMO-006 (FIGS. 8 and 9)
[9] = P20-specific CD4+ T cell line, patient NMO-001, after 14 stimulations (FIG. 6)
[10] = P12-specific CD4+ T cell line, patient NMO-001 (FIG. 13)
[11] = P12-specific CD4+ T cell line NMO-001 (FIG. 14)

Sequence: AGGLYEYVFCPDVEFKRRFK [short C-WT T-cell epitope, reference compound]
specific secretion of cytokines (IL-5 and IL-13) [1, 7]: specific secretion of cytokines (IL-5 and IL-13) induced | cross-reactivity (LCL apoptosis) ([2]; CD4+ T cells of patient NMO-001 after 16 stimulations with P20 (FIG. 7)): lower | effector cells expressing the lytic marker Granzyme B [3, 8]: specific increase of effector cells expressing the lytic marker Granzyme B

Sequence: AGGLYEYVFSPDVEFKRRFK [short-S-WT epitope, reference compound]
reactivation of P20-specific CD4+ T cells (CD154+) ([4]; P20-specific CD4+ T cells of NMO-001 patient (FIG. 4)): could also be reactivated | percentage of specific LCL apoptosis [2, 9]: increase in the percentage of specific LCL apoptosis | effector cells expressing the lytic marker Granzyme B [3, 8]: specific increase of effector cells expressing the lytic marker Granzyme B

binding to HLA-DRB1*03:01 [5]: less affinity than P12 and P20
Sequence: HCPYCAVTVAMVCTRKISIAKK [P6]

Sequence: HCPYCEYVFSPDVEFKRRFK [P20]
time at which oxidoreductase activity reached a plateau [6]: 5 min | binding to HLA-DRB1*03:01 [5]: bind to HLA-DRB1*03:01 with similar affinity | frequency of effector cells (CD3+CD4+CD154+) ([4]; P20-specific CD4+ T cell lines of NMO patients -001 and -003 after multiple stimulations (FIG. 3)): high frequency of effector cells | specific secretion of cytokines (IL-5 and IL-13) [1, 7]: specific secretion of cytokines (IL-5 and IL-13) induced | percentage of specific LCL apoptosis [2, 9]: increase in the percentage of specific LCL apoptosis | apoptosis of loaded LCL ([2]; P20-specific CD4+ T cell line, patient NMO-003, after 14 stimulations (FIG. 6)): Apoptosis of LCL loaded with P20 was also observed | LCL apoptosis ([2]; co-culture with CD4+ T cells of patient NMO-001 after 16 stimulations with P20 (FIG. 7)): 50% | effector cells expressing the lytic marker Granzyme B [3, 8]: specific increase of effector cells expressing the lytic marker Granzyme B

binding to HLA-DRB1*03:01 [5]: less affinity than P12 and P20
Sequence: HCPYCRENIMVAFKGVWTQAK [P1]

Sequence: HCPYCRSQVETDDLILKPGVK [P22]
oxidoreductase activity [6]: displayed oxidoreductase activity, although to a lesser extend

Sequence: HCPYCTRKISIAKSVFYIAAKKK [P12]
time at which oxidoreductase activity reached a plateau [6]: 5 min | binding to HLA-DRB1*03:01 [5]: bind to HLA-DRB1*03:01 with similar affinity | frequency of effector cells (CD3+CD4+CD154+) ([4]; P12-specific CD4+ T cell lines of NMO patients -001 and -003 after multiple stimulations (FIG. 10)): high frequency of effector cells | specific secretion of cytokines (IL-5 and IL-13) ([1]; culture supernatant of P12-specific CD4+ cell lines (FIG. 12, NMO-003)): specific secretion of cytokines (IL-5 and IL-13) induced | percentage of specific LCL apoptosis [2, 10]: increase in the percentage of specific LCL apoptosis | effector cells expressing the lytic marker Granzyme B [3, 11]: specific increase of effector cells expressing the lytic marker Granzyme B

binding to HLA-DRB1*03:01 [5]: less affinity than P12 and P20
Sequence: HCPYCTVAMVSTRKISIAK [P3]

binding to HLA-DRB1*03:01 [5]: less affinity than P12 and P20
Sequence: HCPYCVETIFASSDSKRTDVK (HCPYCVFTIFASSDSKRTDVK) [P15]
oxidoreductase activity [6]: displayed oxidoreductase activity, although to a lesser extend

binding to HLA-DRB1*03:01 [5]: less affinity than P12 and P20
Sequence: KHCPYCVFTIFASCDSKRTDVK [P18]

Sequence: KVAMVCTRKISIAKSVFYIAAKK [short-WT epitope, reference compound]
reactivation of P12-specific CD4+ T cells (CD154+) ([4]; P12-specific CD4+ T cells of NMO-001 patient (FIG. 11)): could also be reactivated | percentage of specific LCL apoptosis [2, 10]: increase in the percentage of specific LCL apoptosis | effector cells expressing the lytic marker Granzyme B [3, 11]: specific increase of effector cells expressing the lytic marker Granzyme B
